Assay results published in patent US6358993B1, “Pharmaceutically active nitrogen ring compounds and methods of use thereof” (CeNes Pharmaceuticals, Inc., priority 1996, dated 2002).
Counter-ions that a name gives are not always drawn.

Assays:
[1] = system: DBA/2 mice; test: In vivo anticonvulsant activity in the DBA/2 mouse model (mouse audiogenic assay); conditions: 30 minutes before auditory stimulus, inhibition relative to vehicle
Procedure: As discussed above, preferred compounds of the invention in a standard anticonvulsant in vivo audiogenic test, such as the audiogenic mouse assay of Example 48 which follows, where DBA/2 mice about 20-23 days old are injected intraperitoneally with a test compound 30 minutes prior to being placed in a bell jar with exposure to auditory stimulus of 12 KHz sine wave at 110-120 db. References herein in vivo “audiogenic assay” are intended to refer to that protocol. […] As discussed above, activity in the audiogenic assay has been recognized as indicative that a test compound has neuroprotective properties. See, e.g., M. Tricklebank et al., European Journal of Pharmacology, supra; T. Seyfried, Federation Proceedings, supra.
In vivo Anticonvulsant Activity in the DBA/2 Mouse Model (Mouse Audiogenic Assay)
Compounds were tested for their effectiveness in preventing seizures in DBA/2 mice which have a unique sensitivity to auditory stimulation. Exposure to loud high-frequency sounds can trigger seizure activity in these animals. This sensitivity develops from postnatal day 12 and peaks around day 21 and slowly diminishes as the animals mature. The unusual response to auditory stimulation in this strain of mouse is believed to be due to a combination of early myelination (causing an unusually low excitatory threshold) and delayed development of inhibitory mechanisms.
Mice were injected intraperitoneally with the compound specified in Table I below or with vehicle control, 30 minutes prior to being placed in a bell jar and turning on the auditory stimulus (12 KHz sine wave at 110-120 db). Administered doses are specified in Table I as milligram of compound per kilogram bodyweight of mouse. The auditory stimulus was left on for 60 seconds and mice reactions were timed and recorded. “FB” refers to free base.

[2] = system: mouse audiogenic tests; conditions: in vivo; cited from earlier work
[3] = system: in vivo models of stroke; conditions: cited from earlier work
[4] = in vivo; cited from earlier work

Compound: N=C(Nc1cc(Br)ccc1Br)N1CCCc2ccc(C(F)(F)F)cc21 (as salt: hydrochloride) [Example 35, N-(2,5-dibromophenyl)-(7-trifluoromethyl-1,2,3,4-tetrahydroquinolinyl)carboximidamide Hydrochloride]
- melting point: 201 to 202 °C

Compound: N=C(N)N1Cc2ccccc2CCc2ccccc21 (as salt: hydrochloride) [Example 41, 5,6,11,12-tetrahydrodibenz[b,f]azocin-carboximidanmide.hydrochloride]
- melting point: 238 to 240 °C

Compound: N=C(Nc1cccc2ccccc12)N1CCc2ccccc21 [Example 2, N-(1-Naphthyl)-1-indolinylcarboximidamide]
- Audiogenic Response % Inhib. ([1]; dose 2 mg/kg i.p.): 82%
- Audiogenic Response % Inhib. ([1]; dose 10 mg/kg i.p.): 100%

Compound: CS(=O)(=O)O.N=C(Nc1ccc(OCc2ccccc2)cc1)N1CCc2ccccc21 [Example 4, N-(4-Benzyloxyphenyl)-1-indolinylcarboximidamide.mesylate]
- Audiogenic Response % Inhib. ([1]; dose 20 mg/kg i.p.): 32%

Compound: COc1ccc(NC(=N)N2CCc3ccccc32)c2ccccc12.CS(=O)(=O)O [Example 5, N-(4-Methoxynaphthyl)-1-indolinylcarboxidamide.mesylate]
- Audiogenic Response % Inhib. ([1]; dose 5 mg/kg i.p.): 50%
- Audiogenic Response % Inhib. ([1]; dose 10 mg/kg i.p.): 68%
- Audiogenic Response % Inhib. ([1]; dose 20 mg/kg i.p.): 87%

Compound: N=C(Nc1ccc(Cl)c(Cl)c1)N1CCc2ccccc21 [Example 6, N-(3,4-Dichlorophenyl)-1-indolinylcarboximidamide]
- Audiogenic Response % Inhib. ([1]; dose 10 mg/kg i.p.): 41%
- Audiogenic Response % Inhib. ([1]; dose 20 mg/kg i.p.): 83%

Compound: CCc1cccc2c1N(C(=N)Nc1cccc3ccccc13)CC2 [Example 9, N-(1-Naphthyl)-1-(7-ethyl)-indolinylcarboximidaide]
- Audiogenic Response % Inhib. ([1]; dose 20 mg/kg i.p.): 28%

Compound: Cl.N=C(Nc1cccc(Cl)c1Cl)N1CCc2ccccc21 [Example 11, N-(2,3-dichiorophenyl)-1-indolinylcarboximidamide.HCl]
- Audiogenic Response % Inhib. ([1]; dose 10 mg/kg i.p.): 55%

Compound: Cc1cccc(NC(=N)N2CCc3ccccc32)c1C.Cl [Example 12, N-(2,3-dimethylphenyl)-1-indolinylcarboximidamide.HCl]
- Audiogenic Response % Inhib. ([1]; dose 2 mg/kg i.p.): 23%
- Audiogenic Response % Inhib. ([1]; dose 5 mg/kg i.p.): 67%
- Audiogenic Response % Inhib. ([1]; dose 10 mg/kg i.p.): 88%

Compound: Cl.N=C(Nc1cccc2c1CCCC2)N1CCc2ccccc21 [Example 13, N-(5,6,7,8-tetrahydro-1-naphthyl)-1-indolinylcarboximidamide.HCl]
- Audiogenic Response % Inhib. ([1]; dose 10 mg/kg i.p.): 48%
- Audiogenic Response % Inhib. ([1]; dose 20 mg/kg i.p.): 80%

Compound: CCc1ccc(Cl)c(NC(=N)N2CCCc3ccc(C(F)(F)F)cc32)c1.Cl [Example 19, N-(2-chloro-5-ethylphenyl)-[(7-trifluoromethyl)-1,2,3,4-tetrahydroquinolinyl]carboximidamiide.HCl]
- Audiogenic Response % Inhib. ([1]; dose 10 mg/kg i.p.): 44%
- Audiogenic Response % Inhib. ([1]; dose 20 mg/kg i.p.): 91%

Compound: Cl.N=C(Nc1cccc2ccccc12)N1CCCc2ccc(C(F)(F)F)cc21 [Example 20]
- Audiogenic Response % Inhib. ([1]; dose 4 mg/kg i.p.): 13%

Compound: Cl.N=C(Nc1cccc2ccccc12)N1CCCc2ccccc21 [Example 21, N-(1-naphthyl)-(1,2,3,4-tetrahydroquinolinyl)carboximidamide.HCl]
- Audiogenic Response % Inhib. ([1]; dose 1 mg/kg i.p.): 13%
- Audiogenic Response % Inhib. ([1]; dose 2 mg/kg i.p.): 62%
- Audiogenic Response % Inhib. ([1]; dose 4 mg/kg i.p.): 88%

Compound: Cl.N=C(Nc1cccc(-c2ccccc2)c1)N1Cc2cccc3cccc1c23 [Example 22, N-(3-biphenyl)-1-(benz[cd]indolinyl)carboximdamide.HCl]
- Audiogenic Response % Inhib. ([1]; dose 10 mg/kg i.p.): 23%

Compound: Cc1ccccc1NC(=N)N1Cc2cccc3cccc1c23.Cl [Example 23, N-(2-tolyl)-1-(benz[cd]indolinyl)carboximidamnide.HCl]
- Audiogenic Response % Inhib. ([1]; dose 1 mg/kg i.p.): 53%
- Audiogenic Response % Inhib. ([1]; dose 2 mg/kg i.p.): 61%
- Audiogenic Response % Inhib. ([1]; dose 4 mg/kg i.p.): 95%

Compound: Cc1ccc(C)c(NC(=N)N2Cc3cccc4cccc2c34)c1.Cl [Example 25, N-(2,5-dimethylphenyl)-1-benz[cd]indolinylcarboximidamide.HCl]
- Audiogenic Response % Inhib. ([1]; dose 5 mg/kg i.p.): 59%
- Audiogenic Response % Inhib. ([1]; dose 10 mg/kg i.p.): 76%

Compound: Cc1ccc2c(c1)CCCN2C(=N)Nc1cccc2ccccc12.Cl [Example 33, N-(1-naphthyl)-(6-methyl-1,2,3,4-tetrahydroquinolinyl)carboximidamide Hydrochloride]
- Audiogenic Response % Inhib. ([1]; dose 4 mg/kg i.p.): 62%

Compound: C[C@]12N[C@H](Cc3ccccc31)c1ccccc12 [MK-801]
- activity in mouse audiogenic tests [2]: good activity
- results in in vivo models of stroke [3]: good results
- toxicity [4]: has shown toxicity

Compound: N=C(Nc1cccc2ccccc12)N1CCc2ccccc2C1 [N-(1-naphthyl)-1,2,3,4-tetrahydroisoquinolinyl)carboximidamide]
- Audiogenic Response % Inhib. ([1]; dose 20 mg/kg i.p.): 41%

Compound: N-(2-biphenyl)-1-indolinylcarboximidamide.HCl [Example 14]
- Audiogenic Response % Inhib. ([1]; dose 20 mg/kg i.p.): 56%

Compound: N-(5-Acenaphthyl)-1-(5-bromo)-indolinylcarboximidamide [Example 8]
- Audiogenic Response % Inhib. ([1]; dose 20 mg/kg i.p.): 11%

Compound: N-(5-Acenaphthyl)-1-(5-methoxy)-1-indolinylcarboximidamide.HCl [Example 7]
- Audiogenic Response % Inhib. ([1]; dose 10 mg/kg i.p.): 21%
